Laboratory results taken from US20120088803A1, “CONTROL AGENT FOR SOFT ROT AND CONTROL METHOD FOR THE SAME” (Ishihara Sangyo Kaisha, Ltd, priority 2009, published 2012).
Where “and” joins values, the source holds several entries; their conditions need not be identical. Identical values can stand only once.

Tests used:
[1] = tested on: Erwinia carotovora (potato Erwinia carotovora); assay: Test for growth inhibition of potato Erwinia carotovora (PSA medium plate); assay type: cell-based; conditions: for Growing state of Erwinia carotovora (formed colonies): PSA medium, 25 degrees C., 4 days, two plates per cell
Protocol: Reference test example: Test for growth inhibition of potato Erwinia carotovora
A test for growth inhibition of Erwinia carotovora in the case of direct application of the control agent to Erwinia carotovora was performed. To previously melted PSA medium (55 degrees C.), a predetermined amount of a pesticide 3-chloro-N-(3-chloro-5-trifluoromethyl-2-pyridyl)-alpha,alpha,alpha-trifluoro-2,6-dinit ro-p-toluidine (fluazinam, Frowncide SC (trade name), manufactured by Ishihara Sangyo Kaisha, Ltd.), ethaboxam wettable powder (Ethaboxam, Gardian (trade name), manufactured by LG Chemical), or streptomycin (Mycin wettable powder (trade name), manufactured by Hokko Chemical Industry Co., Ltd.) and a suspension of Erwinia carotovora (potato Erwinia carotovora) were added and the resulting mixture was stirred well, and then, poured in a plate. Then, the plate was cultured at 25 degrees C. for 4 days, and the growing state of Erwinia carotovora was examined. Thereafter, the formed colonies were examined according to the following three criteria. • +: Equal to the colonies of the untreated group • Plus or minus: Apparently less than the colonies of the untreated group • −: Almost no colonies

Chinese cabbage soft rot [2] = assay: Test for disease control of Chinese cabbage, field (Example 4 / Comparative example 3); assay type: in vivo, Erwinia carotovora; parameters: key to Disease incidence rate: % of examined plants diseased; key to Disease control value: (1 − treated/untreated severity)×100; 100 = full control; key to Disease severity: severity index 0–100 from disease classes 0–4 (sum/(plants×4)×100); conditions: for Disease incidence rate / Disease severity / Disease control value: 64 days; for Disease control value: vs untreated plot
Text: (§1) (Disease incidence rate)=[(number of diseased plants)/(number of plants examined)]*100
(§2) (Disease severity)={S [(number of diseased plants in each class into which the plants are classified according to the degree of disease)*(disease index)]/[(number of plants examined)*4]}*100
(§3) (Disease control value)={1-[(Disease severity in treated plot)/(Disease severity in untreated plot)]}*100
(§4) Incidentally, the evaluation criteria for the disease index are as follows. • (Disease index) • 0: No lesion • 1: Lesions appear only in part of outer leaves (shipment can be made). • 2: Lesions appear in outer leaves and part of head leaves (the damaged part is removed and shipment as a small size plant can be made, rated Grade B). • 3: Lesions appear in most head leaves or more (shipment cannot be made). • 4: Lesions appear in the entire plant and the plant dies.
(§5) Preparation was performed using 500 g/L of 3-chloro-N-(3-chloro-5-trifluoromethyl-2-pyridyl)-alpha,alpha,alpha-trifluoro-2,6-dinit ro-p-toluidine (fluazinam, Frowncide SC (trade name), manufactured by Ishihara Sangyo Kaisha, Ltd.) such that the amount of the active ingredient was 62.5 g ai/10 a (125 mL product/10 a), 125 g ai/10 a (250 mL product/10 a), and 250 g ai/10 a (500 mL product/10 a), and each amount of dilution water was 150 L/10 a.
(§6) A mulch-sheet for agricultural use was spreaded on soil, and planting holes for settlement (diameter: about 5 cm) were made, and then, the spray solution prepared in the above was sprayed onto the planting holes such that the amount of treated active ingredient was 0.0625 g/m^2 (150 L/10 a) in the case of the spray solution containing the active ingredient at 62.5 g ai/10 a, 0.125 g/m^2 (150 L/10 a) in the case of the spray solution containing the active ingredient at 125 g ai/10 a, and 0.25 g/m^2 (150 L/10 a) in the case of the spray solution containing the active ingredient at 250 g ai/10 a, followed by air-drying. Then, seedlings of Chinese cabbage (cultivar: Harebutai 65) grown for 4 weeks in a cell tray (128 holes/nursery box) were planted such that 19 seedlings were planted in one test plot having an area of 2.4 m^2 with two replications.
(§7) Preparation was performed by diluting streptomycin (Mycin 20 wettable powder (trade name), manufactured by Hokko Chemical Industry Co., Ltd.) with water to 1/1000.
(§8) In a field covered with a mulch-sheet for agricultural use, seedlings of Chinese cabbage (cultivar: Harebutai 65) grown in a cell tray were planted, in the same manner as in Example 4, and foliage application was performed with a sprayer by spraying the spray solution of streptomycin prepared in (1) (spraying amount per application: 300 L/10 a) twice (27 days and 48 days after the planting of the seedlings).
(§9) The degree of disease incidence was examined for all the plants in each test plot 64 days after the start of the test, and the disease severity and the disease control value were evaluated. Incidentally, the disease severity and the disease control value were obtained in the same manner as described above.

Chinese cabbage soft rot [3] = assay: Test for disease control of Chinese cabbage, field (Example 3 / Comparative example 2); assay type: in vivo, Erwinia carotovora; parameters: key to Disease incidence rate: % of examined plants diseased; key to Disease control value: (1 - severity treated/severity untreated) x 100; key to Disease severity: severity index 0-100 from disease index 0-4 weighted counts; conditions: for Disease incidence rate / Disease severity / Disease control value: 54 days; for Disease control value: vs untreated plot
Text: as §1, §2, §3, §4, §5
as §6, with “about 9” for “about 5”, “(cultivar: Musou)” for “(cultivar: Harebutai 65)”, “that 30” for “that 19”, “of 6” for “of 2.4”
as §7
as §8, with “Musou)” for “Harebutai 65)”, “3,” for “4,”, “performed” for “performed with a sprayer”, “three times (13 days, 20 days,” for “twice (27 days”, “27” for “48”
as §9, with “54” for “64”

[4] = 62.5 g ai/10 a, 150 L/10 a onto planting holes, Harebutai 65, Average
[5] = 125 g ai/10 a, 150 L/10 a onto planting holes, Harebutai 65, Average
[6] = 250 g ai/10 a, 150 L/10 a onto planting holes, Harebutai 65, Average
[7] = 250 g ai/10 a, 150 L/10 a onto planting holes, Harebutai 65, single replications I-II
[8] = 62.5 g ai/10 a, 150 L/10 a onto planting holes, Musou, Average
[9] = 125 g ai/10 a, 150 L/10 a onto planting holes, Musou, Average
[10] = 125 g ai/10 a, 150 L/10 a onto planting holes, Musou, single replications I-II
[11] = 250 g ai/10 a, 150 L/10 a onto planting holes, Musou, Average
[12] = 250 g ai/10 a, 150 L/10 a onto planting holes, Musou, single replications I-II
[13] = 1/1000 dilution, foliage application twice, Harebutai 65, Average
[14] = 1/1000 dilution, foliage application three times, Musou, Average

SMILES: O=[N+]([O-])c1cc(C(F)(F)F)c(Cl)c([N+](=O)[O-])c1Nc1ncc(C(F)(F)F)cc1Cl [Fluazinam, 3-chloro-N-(3-chloro-5-trifluoromethyl-2-pyridyl)-alpha,alpha,alpha-trifluoro-2,6-dinit ro-p-toluidine]
- Growing state of Erwinia carotovora (formed colonies) ([1]; Active ingredient concentration 100 ppm): +, +
- Growing state of Erwinia carotovora (formed colonies) ([1]; Active ingredient concentration 500 ppm): +, +
- Growing state of Erwinia carotovora (formed colonies) ([1]; Active ingredient concentration 1000 ppm): ±, ±
- Growth inhibition of Erwinia carotovora (in words) ([1]; active ingredient concentration of 1000 ppm, direct application): did not inhibit the growth
- Disease incidence rate (Chinese cabbage soft rot [2]; [4]): 44.7
- Disease severity (Chinese cabbage soft rot [2]; [4]): 13.8
- Disease severity (Chinese cabbage soft rot [2]; 62.5 g ai/10 a, 150 L/10 a onto planting holes, Harebutai 65, single replications I-II): 9.2 and 18.4
- Disease control value (Chinese cabbage soft rot [2]; 62.5 g ai/10 a, 150 L/10 a onto planting holes, Harebutai 65): 56.3
- Disease incidence rate (Chinese cabbage soft rot [2]; 62.5 g ai/10 a, 150 L/10 a onto planting holes, cultivar Harebutai 65, single replications I-II): 36.8 and 52.6
- Disease incidence rate (Chinese cabbage soft rot [2]; [5]): 36.1
- Disease severity (Chinese cabbage soft rot [2]; [5]): 10.5
- Disease control value (Chinese cabbage soft rot [2]; 125 g ai/10 a, 150 L/10 a onto planting holes, Harebutai 65): 66.8
- Disease incidence rate (Chinese cabbage soft rot [2]; [6]): 31.2
- Disease severity (Chinese cabbage soft rot [2]; [6]): 8.5
- Disease incidence rate (Chinese cabbage soft rot [2]; [7]): 23.5 and 38.9
- Disease severity (Chinese cabbage soft rot [2]; [7]): 5.9 and 11.1
- Disease control value (Chinese cabbage soft rot [2]; 250 g ai/10 a, 150 L/10 a onto planting holes, Harebutai 65): 73.1
- Control effect on Chinese cabbage soft rot compared with foliage application of streptomycin (in words) (Chinese cabbage soft rot [2]; Table 4 test, moderate incidence conditions, even at 62.5 g ai/10 a or 125 g ai/10 a): a higher control effect
- Disease incidence rate (Chinese cabbage soft rot [3]; [8]): 100
- Disease severity (Chinese cabbage soft rot [3]; [8]): 32.1
- Disease severity (Chinese cabbage soft rot [3]; 62.5 g ai/10 a, 150 L/10 a onto planting holes, Musou, single replications I-II): 26.7 and 37.5
- Disease control value (Chinese cabbage soft rot [3]; 62.5 g ai/10 a, 150 L/10 a onto planting holes, Musou): 28.7
- Disease incidence rate (Chinese cabbage soft rot [3]; 62.5 g ai/10 a, 150 L/10 a onto planting holes, cultivar Musou, single replications I-II): 100
- Disease incidence rate (Chinese cabbage soft rot [3]; [9]): 100
- Disease severity (Chinese cabbage soft rot [3]; [9]): 30.9
- Disease incidence rate (Chinese cabbage soft rot [3]; [10]): 100
- Disease severity (Chinese cabbage soft rot [3]; [10]): 33.3 and 28.4
- Disease control value (Chinese cabbage soft rot [3]; 125 g ai/10 a, 150 L/10 a onto planting holes, Musou): 31.3
- Disease incidence rate (Chinese cabbage soft rot [3]; [11]): 83.3
- Disease severity (Chinese cabbage soft rot [3]; [11]): 25
- Disease incidence rate (Chinese cabbage soft rot [3]; [12]): 73.3 and 93.3
- Disease severity (Chinese cabbage soft rot [3]; [12]): 20 and 30
- Disease control value (Chinese cabbage soft rot [3]; 250 g ai/10 a, 150 L/10 a onto planting holes, Musou): 44.4
- Control effect on Chinese cabbage soft rot compared with foliage application of streptomycin (in words) (Chinese cabbage soft rot [3]; Table 3 test, moderate incidence conditions, even at 62.5 g ai/10 a or 125 g ai/10 a): a higher control effect

SMILES: [H]/N=C(/N)N[C@H]1[C@H](O)[C@@H](O)[C@H](O[C@@H]2O[C@@H](C)[C@](O)(C=O)[C@H]2O[C@@H]2O[C@@H](CO)[C@H](O)[C@@H](O)[C@@H]2NC)[C@@H](N/C(N)=N\[H])[C@@H]1O [Streptomycin, streptomycin]
- Growing state of Erwinia carotovora (formed colonies) ([1]; Active ingredient concentration 1 ppm): −, −
- Growing state of Erwinia carotovora (formed colonies) ([1]; Active ingredient concentration 10 ppm): −, −
- Disease incidence rate (Chinese cabbage soft rot [2]; 1/1000 dilution, foliage application 300 L/10 a twice (27 and 48 days), Harebutai 65, single replications I-II): 44.4 and 63.2
- Disease incidence rate (Chinese cabbage soft rot [2]; [13]): 53.8
- Disease severity (Chinese cabbage soft rot [2]; [13]): 14.9
- Disease severity (Chinese cabbage soft rot [2]; 1/1000 dilution, foliage application twice, Harebutai 65, single replications I-II): 13.9 and 15.8
- Disease control value (Chinese cabbage soft rot [2]; 1/1000 dilution, foliage application twice, Harebutai 65): 52.8
- Disease incidence rate (Chinese cabbage soft rot [3]; 1/1000 dilution, foliage application 300 L/10 a three times (13, 20, 27 days), Musou, single replications I-II): 100
- Disease incidence rate (Chinese cabbage soft rot [3]; [14]): 100
- Disease severity (Chinese cabbage soft rot [3]; [14]): 36.7
- Disease severity (Chinese cabbage soft rot [3]; 1/1000 dilution, foliage application three times, Musou, single replications I-II): 32.5 and 40.8
- Disease control value (Chinese cabbage soft rot [3]; 1/1000 dilution, foliage application three times, Musou): 18.4
